Measured values: ChEMBL document CHEMBL4414631 (J Med Chem, 2019)

Molecular target: Phosphatidylinositol 4,5-bisphosphate 3-kinase catalytic subunit beta isoform (Homo sapiens, UniProt P42338)
Assay: Inhibition of PI3Kbeta (unknown origin) using biotin-PIP3 as substrate preincubated for 15 mins followed by substrate addition and measured after 60 mins by fluorescence polarization assay
Conditions: not given

Phosphatidylinositol 4,5-bisphosphate 3-kinase catalytic subunit beta isoform, sequence (P42338 whole entry, canonical isoform): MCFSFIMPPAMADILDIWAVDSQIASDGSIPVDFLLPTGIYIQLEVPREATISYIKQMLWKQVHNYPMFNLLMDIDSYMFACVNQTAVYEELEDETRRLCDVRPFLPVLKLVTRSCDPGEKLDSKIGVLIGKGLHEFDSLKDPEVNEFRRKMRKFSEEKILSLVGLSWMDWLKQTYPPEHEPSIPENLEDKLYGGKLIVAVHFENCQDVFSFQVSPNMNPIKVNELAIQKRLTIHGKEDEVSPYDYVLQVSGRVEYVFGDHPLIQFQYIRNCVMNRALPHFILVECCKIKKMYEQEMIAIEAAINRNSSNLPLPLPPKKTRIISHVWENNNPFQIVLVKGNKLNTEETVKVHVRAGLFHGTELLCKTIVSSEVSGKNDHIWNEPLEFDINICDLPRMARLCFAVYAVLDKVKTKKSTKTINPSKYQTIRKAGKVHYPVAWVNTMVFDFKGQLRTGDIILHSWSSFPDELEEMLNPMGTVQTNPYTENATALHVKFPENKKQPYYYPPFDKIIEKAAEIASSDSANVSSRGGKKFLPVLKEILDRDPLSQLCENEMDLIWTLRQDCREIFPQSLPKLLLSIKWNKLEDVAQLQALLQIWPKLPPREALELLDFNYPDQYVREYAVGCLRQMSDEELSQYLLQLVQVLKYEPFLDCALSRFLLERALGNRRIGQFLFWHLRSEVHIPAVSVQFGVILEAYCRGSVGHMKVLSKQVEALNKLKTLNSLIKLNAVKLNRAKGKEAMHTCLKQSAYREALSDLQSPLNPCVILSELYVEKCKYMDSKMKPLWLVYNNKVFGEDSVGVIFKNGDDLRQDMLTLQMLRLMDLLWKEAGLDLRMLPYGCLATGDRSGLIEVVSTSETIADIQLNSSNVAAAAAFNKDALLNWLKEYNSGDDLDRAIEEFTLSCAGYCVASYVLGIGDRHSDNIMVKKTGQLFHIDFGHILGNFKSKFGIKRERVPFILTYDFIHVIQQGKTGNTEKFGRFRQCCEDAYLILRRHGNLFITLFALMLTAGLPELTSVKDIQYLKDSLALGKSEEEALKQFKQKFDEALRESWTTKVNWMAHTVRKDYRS

Row | Compound | IC50
1 | CC(=O)N(C)C1CCN(Cc2cc3nc(-c4cnc(N)nc4)nc(N4CCOCC4)c3s2)CC1 | 398 nM
2 | CC(=O)NC1CCN(Cc2cc3nc(-c4cccc5[nH]ncc45)nc(N4CCOCC4)c3s2)CC1 | 6310 nM
3 | CC(=O)N[C@@H]1CCN(Cc2cc3nc(-c4cnc(N)nc4)nc(N4CCOCC4)c3s2)C1 | 2000 nM
4 | CN(C1CCN(Cc2cc3nc(-c4cccc5[nH]ncc45)nc(N4CCOCC4)c3s2)CC1)S(C)(=O)=O | 5010 nM
5 | CS(=O)(=O)NC1CCN(Cc2cc3nc(-c4cnc(N)nc4)nc(N4CCOCC4)c3s2)CC1 | 398 nM
6 | CC(=O)N(C)[C@H]1CCN(Cc2cc3nc(-c4cnc(N)nc4)nc(N4CCOCC4)c3s2)C1 | 631 nM
7 | CNC(=O)NC1CCN(Cc2cc3nc(-c4cccc5[nH]ncc45)nc(N4CCOCC4)c3s2)CC1 | 3160 nM
8 | COCC(=O)NC1CCN(Cc2cc3nc(-c4cnc(N)nc4)nc(N4CCOCC4)c3s2)CC1 | 794 nM
9 | CS(=O)(=O)NC1CCN(Cc2cc3nc(-c4cccc5[nH]ccc45)nc(N4CCOCC4)c3s2)CC1 | 631 nM
10 | CC(=O)N(C)C1CCN(Cc2cc3nc(-c4cccc5[nH]ncc45)nc(N4CCOCC4)c3s2)CC1 | 2000 nM
11 | CC(=O)N(C)[C@@H]1CCN(Cc2cc3nc(-c4cnc(N)nc4)nc(N4CCOCC4)c3s2)C1 | 398 nM
12 | COCC(=O)NC1CCN(Cc2cc3nc(-c4cccc5[nH]ncc45)nc(N4CCOCC4)c3s2)CC1 | 3980 nM
13 | CC(=O)NC1CCN(Cc2cc3nc(-c4cnc(N)nc4)nc(N4CCOCC4)c3s2)CC1 | 1580 nM
14 | CN(C1CCN(Cc2cc3nc(-c4cccc5[nH]ccc45)nc(N4CCOCC4)c3s2)CC1)S(C)(=O)=O | 1260 nM
15 | CNC(=O)NC1CCN(Cc2cc3nc(-c4cnc(N)nc4)nc(N4CCOCC4)c3s2)CC1 | 631 nM

Molecular target: T1, Phosphatidylinositol 4,5-bisphosphate 3-kinase catalytic subunit delta isoform (Homo sapiens, UniProt O00329)
T1 sequence (O00329 whole entry): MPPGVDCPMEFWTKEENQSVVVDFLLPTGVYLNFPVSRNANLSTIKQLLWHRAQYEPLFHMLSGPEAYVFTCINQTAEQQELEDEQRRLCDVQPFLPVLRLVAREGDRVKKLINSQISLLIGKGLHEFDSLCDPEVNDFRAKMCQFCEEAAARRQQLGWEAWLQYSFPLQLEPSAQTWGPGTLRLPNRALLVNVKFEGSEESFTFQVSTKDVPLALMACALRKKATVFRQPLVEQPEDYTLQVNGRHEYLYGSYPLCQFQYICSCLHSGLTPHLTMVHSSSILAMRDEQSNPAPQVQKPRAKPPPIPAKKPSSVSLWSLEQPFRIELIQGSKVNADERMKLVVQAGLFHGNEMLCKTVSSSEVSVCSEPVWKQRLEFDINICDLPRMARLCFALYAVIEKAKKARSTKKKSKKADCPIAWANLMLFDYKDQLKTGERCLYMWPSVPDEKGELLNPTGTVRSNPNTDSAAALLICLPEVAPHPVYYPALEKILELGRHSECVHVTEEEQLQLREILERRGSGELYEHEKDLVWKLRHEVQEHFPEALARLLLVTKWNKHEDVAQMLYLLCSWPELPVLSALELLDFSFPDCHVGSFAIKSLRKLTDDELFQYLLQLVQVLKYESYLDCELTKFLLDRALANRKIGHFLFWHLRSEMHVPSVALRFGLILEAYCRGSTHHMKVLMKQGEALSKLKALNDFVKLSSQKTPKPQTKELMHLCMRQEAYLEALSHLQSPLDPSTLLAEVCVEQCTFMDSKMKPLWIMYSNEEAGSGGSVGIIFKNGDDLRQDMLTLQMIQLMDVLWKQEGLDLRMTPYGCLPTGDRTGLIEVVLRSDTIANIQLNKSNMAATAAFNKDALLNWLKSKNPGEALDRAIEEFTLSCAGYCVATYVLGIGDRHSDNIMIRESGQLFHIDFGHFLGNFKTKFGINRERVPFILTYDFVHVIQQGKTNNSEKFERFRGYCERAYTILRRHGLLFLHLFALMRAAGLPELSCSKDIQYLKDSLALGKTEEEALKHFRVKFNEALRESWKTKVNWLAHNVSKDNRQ
Conditions: not given

Row | Compound | IC50
16 | CC(=O)N(C)C1CCN(Cc2cc3nc(-c4cnc(N)nc4)nc(N4CCOCC4)c3s2)CC1 | 6.31 nM
17 | CC(=O)NC1CCN(Cc2cc3nc(-c4cccc5[nH]ncc45)nc(N4CCOCC4)c3s2)CC1 | 200 nM
18 | CC(=O)N[C@@H]1CCN(Cc2cc3nc(-c4cnc(N)nc4)nc(N4CCOCC4)c3s2)C1 | 158 nM
19 | CN(C1CCN(Cc2cc3nc(-c4cccc5[nH]ncc45)nc(N4CCOCC4)c3s2)CC1)S(C)(=O)=O | 39.8 nM
20 | CS(=O)(=O)NC1CCN(Cc2cc3nc(-c4cnc(N)nc4)nc(N4CCOCC4)c3s2)CC1 | 25.1 nM
21 | CC(=O)N(C)[C@H]1CCN(Cc2cc3nc(-c4cnc(N)nc4)nc(N4CCOCC4)c3s2)C1 | 12.6 nM
22 | CNC(=O)NC1CCN(Cc2cc3nc(-c4cccc5[nH]ncc45)nc(N4CCOCC4)c3s2)CC1 | 100 nM
23 | COCC(=O)NC1CCN(Cc2cc3nc(-c4cnc(N)nc4)nc(N4CCOCC4)c3s2)CC1 | 39.8 nM
24 | CS(=O)(=O)NC1CCN(Cc2cc3nc(-c4cccc5[nH]ccc45)nc(N4CCOCC4)c3s2)CC1 | 20 nM
25 | CC(=O)N(C)C1CCN(Cc2cc3nc(-c4cccc5[nH]ncc45)nc(N4CCOCC4)c3s2)CC1 | 31.6 nM
26 | CC(=O)N(C)[C@@H]1CCN(Cc2cc3nc(-c4cnc(N)nc4)nc(N4CCOCC4)c3s2)C1 | 7.94 nM
27 | COCC(=O)NC1CCN(Cc2cc3nc(-c4cccc5[nH]ncc45)nc(N4CCOCC4)c3s2)CC1 | 126 nM
28 | CC(=O)NC1CCN(Cc2cc3nc(-c4cnc(N)nc4)nc(N4CCOCC4)c3s2)CC1 | 100 nM
29 | CN(C1CCN(Cc2cc3nc(-c4cccc5[nH]ccc45)nc(N4CCOCC4)c3s2)CC1)S(C)(=O)=O | 12.6 nM
30 | CNC(=O)NC1CCN(Cc2cc3nc(-c4cnc(N)nc4)nc(N4CCOCC4)c3s2)CC1 | 39.8 nM

Tested on: not listed separately
Assay: Lipophilicity, logD of compound at pH 7.4 by HPLC-MS analysis
Conditions: buffer

Row | Compound | logD
31 | CC(=O)N(C)C1CCN(Cc2cc3nc(-c4cnc(N)nc4)nc(N4CCOCC4)c3s2)CC1 | 2.8
32 | CC(=O)NC1CCN(Cc2cc3nc(-c4cccc5[nH]ncc45)nc(N4CCOCC4)c3s2)CC1 | 3.2
33 | CC(=O)N[C@@H]1CCN(Cc2cc3nc(-c4cnc(N)nc4)nc(N4CCOCC4)c3s2)C1 | 1.8
34 | CN(C1CCN(Cc2cc3nc(-c4cccc5[nH]ncc45)nc(N4CCOCC4)c3s2)CC1)S(C)(=O)=O | 4.5
35 | CS(=O)(=O)NC1CCN(Cc2cc3nc(-c4cnc(N)nc4)nc(N4CCOCC4)c3s2)CC1 | 2.4
36 | CC(=O)N(C)[C@H]1CCN(Cc2cc3nc(-c4cnc(N)nc4)nc(N4CCOCC4)c3s2)C1 | 2.5
37 | CNC(=O)NC1CCN(Cc2cc3nc(-c4cccc5[nH]ncc45)nc(N4CCOCC4)c3s2)CC1 | 3.1
38 | COCC(=O)NC1CCN(Cc2cc3nc(-c4cnc(N)nc4)nc(N4CCOCC4)c3s2)CC1 | 2.3
39 | CS(=O)(=O)NC1CCN(Cc2cc3nc(-c4cccc5[nH]ccc45)nc(N4CCOCC4)c3s2)CC1 | 4.4
40 | CC(=O)N(C)C1CCN(Cc2cc3nc(-c4cccc5[nH]ncc45)nc(N4CCOCC4)c3s2)CC1 | 4.1
41 | CC(=O)N(C)[C@@H]1CCN(Cc2cc3nc(-c4cnc(N)nc4)nc(N4CCOCC4)c3s2)C1 | 2.5
42 | COCC(=O)NC1CCN(Cc2cc3nc(-c4cccc5[nH]ncc45)nc(N4CCOCC4)c3s2)CC1 | 3.9
43 | CC(=O)NC1CCN(Cc2cc3nc(-c4cnc(N)nc4)nc(N4CCOCC4)c3s2)CC1 | 2.2
44 | CN(C1CCN(Cc2cc3nc(-c4cccc5[nH]ccc45)nc(N4CCOCC4)c3s2)CC1)S(C)(=O)=O | 5.2
45 | CNC(=O)NC1CCN(Cc2cc3nc(-c4cnc(N)nc4)nc(N4CCOCC4)c3s2)CC1 | 1.9

Molecular target: Phosphatidylinositol 4,5-bisphosphate 3-kinase catalytic subunit alpha isoform (Homo sapiens, UniProt P42336)
Sequence (P42336 whole entry, canonical isoform): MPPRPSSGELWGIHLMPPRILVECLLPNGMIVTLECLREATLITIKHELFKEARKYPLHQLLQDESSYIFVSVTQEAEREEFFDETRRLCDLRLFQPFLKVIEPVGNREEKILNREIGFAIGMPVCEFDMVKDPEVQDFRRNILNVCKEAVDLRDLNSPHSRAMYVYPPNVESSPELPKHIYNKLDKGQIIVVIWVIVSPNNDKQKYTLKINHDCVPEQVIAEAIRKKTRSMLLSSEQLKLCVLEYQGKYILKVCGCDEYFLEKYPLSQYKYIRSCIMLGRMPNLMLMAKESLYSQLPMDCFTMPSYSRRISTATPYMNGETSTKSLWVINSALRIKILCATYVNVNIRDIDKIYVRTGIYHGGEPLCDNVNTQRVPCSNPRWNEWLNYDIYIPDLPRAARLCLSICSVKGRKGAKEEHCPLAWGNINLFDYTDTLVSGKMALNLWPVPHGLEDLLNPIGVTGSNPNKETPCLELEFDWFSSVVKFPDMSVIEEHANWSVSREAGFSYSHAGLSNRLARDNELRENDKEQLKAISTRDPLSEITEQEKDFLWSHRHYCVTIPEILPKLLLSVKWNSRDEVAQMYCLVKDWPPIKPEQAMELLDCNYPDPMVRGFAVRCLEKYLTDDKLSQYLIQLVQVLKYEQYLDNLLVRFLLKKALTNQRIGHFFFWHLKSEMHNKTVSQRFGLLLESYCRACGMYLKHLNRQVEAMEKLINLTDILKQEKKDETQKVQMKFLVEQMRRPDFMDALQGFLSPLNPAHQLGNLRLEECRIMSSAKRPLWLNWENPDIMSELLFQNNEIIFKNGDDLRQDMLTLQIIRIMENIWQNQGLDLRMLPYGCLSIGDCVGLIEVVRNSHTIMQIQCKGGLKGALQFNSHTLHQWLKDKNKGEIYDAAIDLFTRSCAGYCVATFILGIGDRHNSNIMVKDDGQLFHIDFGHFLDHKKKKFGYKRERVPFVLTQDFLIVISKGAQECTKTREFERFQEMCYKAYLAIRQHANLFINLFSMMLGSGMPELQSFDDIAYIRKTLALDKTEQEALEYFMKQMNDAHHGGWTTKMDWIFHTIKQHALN
Conditions: not given

Row | Compound | IC50
46 | CC(=O)N(C)C1CCN(Cc2cc3nc(-c4cnc(N)nc4)nc(N4CCOCC4)c3s2)CC1 | 39.8 nM
47 | CC(=O)NC1CCN(Cc2cc3nc(-c4cccc5[nH]ncc45)nc(N4CCOCC4)c3s2)CC1 | 631 nM
48 | CC(=O)N[C@@H]1CCN(Cc2cc3nc(-c4cnc(N)nc4)nc(N4CCOCC4)c3s2)C1 | 126 nM
49 | CN(C1CCN(Cc2cc3nc(-c4cccc5[nH]ncc45)nc(N4CCOCC4)c3s2)CC1)S(C)(=O)=O | 316 nM
50 | CS(=O)(=O)NC1CCN(Cc2cc3nc(-c4cnc(N)nc4)nc(N4CCOCC4)c3s2)CC1 | 31.6 nM
51 | CC(=O)N(C)[C@H]1CCN(Cc2cc3nc(-c4cnc(N)nc4)nc(N4CCOCC4)c3s2)C1 | 20 nM
52 | CNC(=O)NC1CCN(Cc2cc3nc(-c4cccc5[nH]ncc45)nc(N4CCOCC4)c3s2)CC1 | 251 nM
53 | COCC(=O)NC1CCN(Cc2cc3nc(-c4cnc(N)nc4)nc(N4CCOCC4)c3s2)CC1 | 50.1 nM
54 | CS(=O)(=O)NC1CCN(Cc2cc3nc(-c4cccc5[nH]ccc45)nc(N4CCOCC4)c3s2)CC1 | 1260 nM
55 | CC(=O)N(C)C1CCN(Cc2cc3nc(-c4cccc5[nH]ncc45)nc(N4CCOCC4)c3s2)CC1 | 501 nM
56 | CC(=O)N(C)[C@@H]1CCN(Cc2cc3nc(-c4cnc(N)nc4)nc(N4CCOCC4)c3s2)C1 | 31.6 nM
57 | COCC(=O)NC1CCN(Cc2cc3nc(-c4cccc5[nH]ncc45)nc(N4CCOCC4)c3s2)CC1 | 398 nM
58 | CC(=O)NC1CCN(Cc2cc3nc(-c4cnc(N)nc4)nc(N4CCOCC4)c3s2)CC1 | 126 nM
59 | CN(C1CCN(Cc2cc3nc(-c4cccc5[nH]ccc45)nc(N4CCOCC4)c3s2)CC1)S(C)(=O)=O | 1580 nM
60 | CNC(=O)NC1CCN(Cc2cc3nc(-c4cnc(N)nc4)nc(N4CCOCC4)c3s2)CC1 | 25.1 nM

Molecular target: Phosphatidylinositol 4,5-bisphosphate 3-kinase catalytic subunit gamma isoform (Homo sapiens, UniProt P48736)
Sequence (P48736 whole entry, canonical isoform): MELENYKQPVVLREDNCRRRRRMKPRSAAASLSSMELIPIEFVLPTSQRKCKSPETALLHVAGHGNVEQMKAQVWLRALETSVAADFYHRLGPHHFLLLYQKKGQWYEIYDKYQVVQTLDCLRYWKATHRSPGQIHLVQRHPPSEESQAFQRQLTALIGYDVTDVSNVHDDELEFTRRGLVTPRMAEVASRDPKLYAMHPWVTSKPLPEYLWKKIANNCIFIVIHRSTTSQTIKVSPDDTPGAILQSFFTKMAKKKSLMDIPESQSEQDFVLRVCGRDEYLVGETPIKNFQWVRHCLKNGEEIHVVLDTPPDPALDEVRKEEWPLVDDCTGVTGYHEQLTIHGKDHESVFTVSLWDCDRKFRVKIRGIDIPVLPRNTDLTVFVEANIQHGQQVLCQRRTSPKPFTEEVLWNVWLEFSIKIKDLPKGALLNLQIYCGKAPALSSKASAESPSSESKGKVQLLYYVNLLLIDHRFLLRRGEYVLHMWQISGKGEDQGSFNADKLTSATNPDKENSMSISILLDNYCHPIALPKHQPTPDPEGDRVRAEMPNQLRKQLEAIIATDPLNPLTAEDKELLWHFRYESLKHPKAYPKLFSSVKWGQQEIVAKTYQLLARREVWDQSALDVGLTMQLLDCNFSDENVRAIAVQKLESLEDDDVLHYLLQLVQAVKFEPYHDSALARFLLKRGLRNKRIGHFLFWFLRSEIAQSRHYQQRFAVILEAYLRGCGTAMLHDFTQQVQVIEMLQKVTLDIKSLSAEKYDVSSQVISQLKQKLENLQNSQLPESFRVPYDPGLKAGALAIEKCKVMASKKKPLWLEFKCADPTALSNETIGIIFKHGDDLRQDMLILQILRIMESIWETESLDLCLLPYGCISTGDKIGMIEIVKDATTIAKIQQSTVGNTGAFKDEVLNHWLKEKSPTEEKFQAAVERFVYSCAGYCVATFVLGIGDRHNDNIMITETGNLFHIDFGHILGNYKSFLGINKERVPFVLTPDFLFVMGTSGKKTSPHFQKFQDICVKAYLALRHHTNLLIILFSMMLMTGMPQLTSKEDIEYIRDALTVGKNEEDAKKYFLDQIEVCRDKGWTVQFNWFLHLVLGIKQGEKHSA
Conditions: not given

Row | Compound | IC50
61 | CC(=O)N(C)C1CCN(Cc2cc3nc(-c4cnc(N)nc4)nc(N4CCOCC4)c3s2)CC1 | 39.8 nM
62 | CC(=O)N[C@@H]1CCN(Cc2cc3nc(-c4cnc(N)nc4)nc(N4CCOCC4)c3s2)C1 | 126 nM
63 | CN(C1CCN(Cc2cc3nc(-c4cccc5[nH]ncc45)nc(N4CCOCC4)c3s2)CC1)S(C)(=O)=O | 794 nM
64 | CS(=O)(=O)NC1CCN(Cc2cc3nc(-c4cnc(N)nc4)nc(N4CCOCC4)c3s2)CC1 | 63.1 nM
65 | CC(=O)N(C)[C@H]1CCN(Cc2cc3nc(-c4cnc(N)nc4)nc(N4CCOCC4)c3s2)C1 | 15.8 nM
66 | COCC(=O)NC1CCN(Cc2cc3nc(-c4cnc(N)nc4)nc(N4CCOCC4)c3s2)CC1 | 63.1 nM
67 | CS(=O)(=O)NC1CCN(Cc2cc3nc(-c4cccc5[nH]ccc45)nc(N4CCOCC4)c3s2)CC1 | 1000 nM
68 | CC(=O)N(C)C1CCN(Cc2cc3nc(-c4cccc5[nH]ncc45)nc(N4CCOCC4)c3s2)CC1 | 1000 nM
69 | CC(=O)N(C)[C@@H]1CCN(Cc2cc3nc(-c4cnc(N)nc4)nc(N4CCOCC4)c3s2)C1 | 25.1 nM
70 | CC(=O)NC1CCN(Cc2cc3nc(-c4cnc(N)nc4)nc(N4CCOCC4)c3s2)CC1 | 158 nM
71 | CN(C1CCN(Cc2cc3nc(-c4cccc5[nH]ccc45)nc(N4CCOCC4)c3s2)CC1)S(C)(=O)=O | 794 nM
72 | CNC(=O)NC1CCN(Cc2cc3nc(-c4cnc(N)nc4)nc(N4CCOCC4)c3s2)CC1 | 63.1 nM
